Results taken from US8809341B2, “2,4-pyrimidinediamine compounds and uses as anti-proliferative agents” (Rigel Pharmaceuticals, Inc., priority 2003, dated 2014).
Read-outs that look alike come from different tables or passages of the source. Each block holds one compound with its values, some of them ahead of it.

What was measured:
Type in all cases: cell-based
HCT116 = test: in vitro antiproliferation assay, HCT116 (colon)
Experimental: The IC50 values of various compounds against a various different tumor cell lines were determined using standard in vitro antiproliferation assays. The tumor cell lines tested were as follows: A549 (lung); H1299 (lung), ACHN (kidney/p53 wt), CAKI (renal cell carcinoma), NCI-H460 (lung); HCT116 (colon/p53w0; HELA (cervix/p53 wt), HUH7 (liver/p53 wt), HUVEC (primary endothelial), LNCAP (prostate), HT-29 (colon); MCF-7 (breast); MCF-7 (breast/ER positive), MDA MB435S (breast); MDA MB231 (breast/ER negative), DU145 (prostate); BxPC-3 (pancreatic); SKOV-3 (ovarian); HepG2 (hepatic), NDHF primary normal human dermal fibroblast), SKMEL28 (breast/p53mut), SKMEL5 (breast/p53 wt), U20S (bone) and PC3 (prostate). […] A blank indicates the specified compound was not tested against the specified cell line.
Many of the compounds were tested against other cell lines. Their activity is reported in TABLE 15, below, where +”, “−”, “−/+” or “+/−” values are as described for TABLES 1-14. Where the cell line includes a value in a parenthetical, the value indicates the seeding density at which the assay was performed

A549 cells = test: in vitro antiproliferation assay, A549 (lung)
In short: (§1)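 Standard in vitro antiproliferation assays on tumour cell lines, including A549 and H1299 (both lung); IC50 values determined.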

H1299 cells = test: in vitro antiproliferation assay, H1299 (lung)
In short: as §1

[1] = HCT116 (colon), read-out: HCT116
[2] = Table 5, in vitro antiproliferation, A549 (lung) cells
[3] = Table 7, in vitro antiproliferation, colon cells, read-out: HTC116
[4] = Table 7, in vitro antiproliferation, A549 (lung) cells
[5] = in vitro antiproliferation, A549 (lung) cells, Table 4, compounds with no designated stereochemistry tested as racemate
[6] = A549 (lung) cells, antiproliferation
[7] = H1299 (lung) cells, antiproliferation
[8] = in vitro antiproliferation, H1299 (lung) cells, Table 4, compounds with no designated stereochemistry tested as racemate
[9] = IC50 class against A549 (lung) tumor cells
[10] = IC50 class against H1299 (lung) tumor cells

- IC50 (HCT116; [1]): ≤ 20 µM
SMILES: CN1CCN(c2ccc(Nc3ncc(F)c(Nc4ccc5c(n4)NC(=O)C(C)(C)O5)n3)cc2)CC1 [compound 436]

- IC50 (HCT116; [1]): ≤ 20 µM
- IC50 (A549 cells; [2]): ≤ 20 µM
SMILES: OCCOc1cccc(Nc2ncc(F)c(Nc3ccc4c(c3)OCCCO4)n2)c1 [compound 581]

- IC50 (HCT116; [1]): > 20 µM
- IC50 (HCT116; [3]): > 20 µM
- IC50 (A549 cells; [4]): ≤ 20 µM
SMILES: COC(=O)c1cc2cc(Nc3ncc(F)c(Nc4cccc(O)c4)n3)ccc2o1 [compound 636]

- IC50 (HCT116; [1]): ≤ 20 µM
- IC50 (A549 cells; [2]): ≤ 20 µM
SMILES: Cc1cc(C)cc(Nc2ncc(F)c(Nc3ccc4c(c3)OCCO4)n2)c1 [compound 527]

- IC50 (HCT116; [1]): ≤ 20 µM
- IC50 (A549 cells; [5]): ≤ 20 µM
SMILES: Cc1cc(C)cc(Nc2ncc(F)c(Nc3ccc4c(c3)NC(=O)C(C)(C)O4)n2)c1 [compound 310]

- IC50 (HCT116; [1]): ≤ 20 µM
- IC50 (A549 cells; [2]): ≤ 20 µM
SMILES: NC(=O)COc1cccc(Nc2ncc(F)c(Nc3ccc4c(c3)OCCO4)n2)c1 [compound 504]

- IC50 (HCT116; [1]): ≤ 20 µM
- IC50 (HCT116; [3]): ≤ 20 µM
- IC50 (A549 cells; [4]): ≤ 20 µM
SMILES: O=C(c1cc2cc(Nc3ncc(F)c(Nc4ccc5c(c4)OCCO5)n3)ccc2o1)N1CCNCC1 [compound 632]

- IC50 (HCT116; [1]): ≤ 20 µM
SMILES: CN1CCN(c2ccc(Nc3ncc(F)c(Nc4ccc5c(n4)NC(=O)CO5)n3)cc2)CC1 [compound 435]

- IC50 (HCT116; [1]): ≤ 20 µM
- IC50 (HCT116; [3]): ≤ 20 µM
- IC50 (A549 cells; [4]): ≤ 20 µM
SMILES: O=C(NCCO)c1cc2cc(Nc3ncc(F)c(Nc4ccc5c(c4)OCCO5)n3)ccc2o1 [compound 631]

- IC50 (A549 cells; [6]): ≤ 20 µM
- IC50 (H1299 cells; [7]): ≤ 20 µM
SMILES: NCc1ccc(Nc2ncc(F)c(Nc3ccc(CN)cc3)n2)cc1 [compound 1013]

- IC50 (A549 cells; [6]): ≤ 20 µM
- IC50 (H1299 cells; [7]): ≤ 20 µM
SMILES: O=C(COc1cccc(Nc2ncc(F)c(Nc3ccc(N4CCOCC4)cc3)n2)c1)NC1CC1 [compound 988]

- IC50 (A549 cells; A549 (lung) cells, in vitro antiproliferation): ≤ 20 µM
- IC50 (H1299 cells; H1299 (lung) cells, in vitro antiproliferation): ≤ 20 µM
SMILES: COc1ccc(Nc2ncc(F)c(Nc3ccc(OC)cc3)n2)cc1 [compound 702]

- IC50 (HCT116; [1]): > 20 µM
- IC50 (A549 cells; [2]): ≤ 20 µM
SMILES: COc1cc(Nc2ncc(F)c(Nc3ccc4c(c3)OCCO4)n2)cc(OC)c1OC [compound 506]

- IC50 (A549 cells; [5]): ≤ 20 µM
- IC50 (H1299 cells; [8]): ≤ 20 µM
SMILES: COc1cc(Nc2ncc(F)c(Nc3ccc4c(c3)NC(=O)C(C)S4(=O)=O)n2)cc(OC)c1 (racemic) [compound 250]

- IC50 (A549 cells; [9]): ≤ 20 µM
- IC50 (H1299 cells; [10]): ≤ 20 µM
SMILES: CN(C)c1ncc(F)c(N(C)c2ccc3c(c2)OCCO3)n1 [compound 1039]

- IC50 (A549 cells; [9]): ≤ 20 µM
- IC50 (H1299 cells; [10]): ≤ 20 µM
SMILES: CC(=O)N1CCN(c2ccc(Nc3ncc(F)c(NC4CCCC4)n3)cc2)CC1 [compound 133]

- IC50 (A549 cells; [9]): ≤ 20 µM
- IC50 (H1299 cells; [10]): ≤ 20 µM
SMILES: Cc1cc(Nc2ncc(F)c(NC3CCC3)n2)cnc1N1CCN(C)CC1 [compound 171]

- IC50 (A549 cells; [9]): ≤ 20 µM
- IC50 (H1299 cells; [10]): ≤ 20 µM
SMILES: CCN1CCN(c2ccc(Nc3ncc(F)c(NC4CC(C)(C)N(C)C(C)(C)C4)n3)cn2)CC1 [compound 183]

- IC50 (A549 cells; A549 (lung) cells): ≤ 20 µM
- IC50 (H1299 cells; H1299 (lung) cells): ≤ 20 µM
SMILES: COc1ccc(Nc2nc(Nc3ccc4cnn(C(C)(C)CC5CCC5)c4c3)ncc2F)cc1Cl [compound 1102]

- IC50 (A549 cells; A549 (lung) cells): ≤ 20 µM
- IC50 (H1299 cells; H1299 (lung) cells): ≤ 20 µM
SMILES: CCCCn1ncc2cc(Nc3ncc(F)c(Nc4ccc(F)c(OC)c4)n3)ccc21 [compound 1085]

- IC50 (A549 cells; [2]): ≤ 20 µM
- IC50 (H1299 cells; Table 5, in vitro antiproliferation, H1299 (lung) cells): ≤ 20 µM
SMILES: Fc1cnc(Nc2cc(-c3ncco3)cc(C(F)(F)F)c2)nc1Nc1ccc2c(c1)OCCO2 [compound 559]

- IC50 (A549 cells; A549 (lung) cells): ≤ 20 µM
- IC50 (H1299 cells; H1299 (lung) cells): ≤ 20 µM
SMILES: CCCCn1ncc2ccc(Nc3ncc(F)c(Nc4ccc5c(c4)NC(=O)C(C)(C)O5)n3)cc21 [compound 1088]

- IC50 (A549 cells; Homo sapiens, IC50 class against A549 (lung) tumor cells): ≤ 20 µM
- IC50 (H1299 cells; Homo sapiens, NCI-H1299, IC50 class against H1299 (lung) tumor cells): ≤ 20 µM
SMILES: Fc1cnc(Nc2cccc(N3CCOCC3)c2)nc1Nc1cccc(Nc2ncc[nH]2)c1 [compound 1054]

- IC50 (A549 cells; [5]): ≤ 20 µM
- IC50 (H1299 cells; [8]): ≤ 20 µM
SMILES: COc1ccc(Nc2ncc(F)c(N(C)c3ccc4c(c3)N(C)C(=O)C(C)(C)O4)n2)cc1Cl [compound 325]

- IC50 (A549 cells; [9]): ≤ 20 µM
- IC50 (H1299 cells; [10]): ≤ 20 µM
SMILES: COc1cc(Nc2ncc(F)c(Nc3ccc4c(c3)NC(C)(C)CO4)n2)cc(OC)c1 [compound 588]

- IC50 (A549 cells; A549 (lung) cells): ≤ 20 µM
- IC50 (H1299 cells; H1299 (lung) cells): ≤ 20 µM
SMILES: CC(C)(CC1CCCCC1)n1ncc2ccc(Nc3ncc(F)c(Nc4ccc(Cl)c(Cl)c4)n3)cc21 [compound 1095]

- IC50 (A549 cells; [5]): ≤ 20 µM
- IC50 (H1299 cells; [8]): ≤ 20 µM
SMILES: COc1cc(Nc2ncc(F)c(Nc3ccc4c(c3)NC(=O)C(C)(C)S4(=O)=O)n2)cc(OC)c1OC [compound 265]

- IC50 (A549 cells; [9]): ≤ 20 µM
- IC50 (H1299 cells; [10]): ≤ 20 µM
SMILES: CN1CCN(c2ccc(Nc3ncc(F)c(Nc4ccc5c(n4)NCCO5)n3)cc2)CC1 [compound 608]
